Like-named read-outs stand apart in the source and are kept apart here.
Tests used:
non-inoculated wheat = experiment: Field yield of non-inoculated spring wheat after herbicide treatment; type: in vivo; details: for Yield: 2002, non-inoculated, glyphosate on glyphosate res. wheat, Buctril/Harmony on sensitive wheat
From the text: (§1) This example describes the response of glyphosate resistant and glyphosate sensitive spring wheat to inoculation with soil pathogens as judged by wheat yield. Inoculation simulates the green-bridge effect of dying weeds and volunteer in a standing wheat crop. The soil pathogens assessed were: Rhizoctonia solani isolate AG-8 and Gaeumannomyces graminis var. tritici. These pathogenic strains are prevalent in the Pacific Northwest and were isolated from the region. They have been maintained by the Department of Plant Pathology and USDA researchers at Washington State University.
(§2) Near isogenic lines (glyphosate resistant and glyphosate sensitive) of Westbred 926 and Bobwhite were seeded using a no-till drill at three different sites (Lind, Davenport and Pullman, Wash.).
(§3) To introduce the root pathogens into the wheat seed for distribution into the field, oat seeds, autoclaved and sterilized, were inoculated for each soilborne pathogen using isolated pathogen cultures. Oat seeds that were non-inoculated, but sterilized and autoclaved, served as a control. Following two weeks of pathogen growth, the inoculated oat seeds were dried down for 2 days and screened for potential contamination. To establish a green-bridge, a mixture of 15% barley and 20% oat inoculum seeds (by weight) were planted using a small plot no-till drill. One week after planting the introduced green-bridge, the wheat isolines were planted in rows adjacent to the barley green-bridge rows in a randomized, split-plot design, replicated in five randomized blocks. Inoculum treatment served as the main plot, and response to herbicides as the subplot factor.
(§4) This example describes the effect of herbicide treatment on spring wheat, averaged over all disease treatments, planted as described in Example 1. The appropriate herbicide was applied to each trial once the plants reached the 4-5 leaf stage with a custom built hand-pulled sprayer outfitted with a boom with a length of 16 feet with spray shields on the side to minimize drift. In this manner, an entire plot was treated at once with the appropriate herbicide rate. Entries that were resistant to glyphosate were treated with ROUNDUP® brand herbicide (0.63 kg/ha), available from Monsanto, St. Louis, Mo. Herbicide sensitive and resistant entries were treated with a common broadleaf herbicide treatment (Buctril/Harmony) or a no-spray control. Introduced green-bridge barley and any other weeds were manually removed 7-10 days after spray treatment to simulate the time required for ROUNDUP to take effect and maintained weed-free conditions to provide an accurate comparison to commercial weed management strategies needed to assess potential herbicide/disease interactions. […]

[1] = test system: Gaeumannomyces graminis var. tritici (Ggt); experiment: Field yield of Ggt inoculated spring wheat after herbicide treatment; type: in vivo; details: for Yield: Ggt inoculated, glyphosate on glyphosate res. wheat, Buctril/Harmony on sensitive wheat
From the text: as §1, §2, §3, §4

[2] = test system: Rhizoctonia solani isolate AG-8; experiment: Field yield of Rhizoctonia inoculated spring wheat after herbicide treatment; type: in vivo; details: for Yield: glyphosate on glyphosate res. wheat, Buctril/Harmony on sensitive wheat
From the text: as §1, §2, §3, §4

stripe rust = experiment: Bobwhite NILs under natural stripe rust infection, Pullman 2002; type: in vivo, Puccinia striiformis; details: for Yield: Pullman 2002, cultivar Bobwhite (res.)
From the text: as §1, §2, §3
This example describes the effect of herbicide treatment on spring wheat, averaged over all disease treatments, planted as described in Example 1. The appropriate herbicide was applied to each trial once the plants reached the 4-5 leaf stage with a custom built hand-pulled sprayer outfitted with a boom with a length of 16 feet with spray shields on the side to minimize drift. In this manner, an entire plot was treated at once with the appropriate herbicide rate. Entries that were resistant to glyphosate were treated with ROUNDUP® brand herbicide (0.63 kg/ha), available from Monsanto, St. Louis, Mo. Herbicide sensitive and resistant entries were treated with a common broadleaf herbicide treatment (Buctril/Harmony) or a no-spray control. Introduced green-bridge barley and any other weeds were manually removed 7-10 days after spray treatment to simulate the time required for ROUNDUP to take effect and maintained weed-free conditions to provide an accurate comparison to commercial weed management strategies needed to assess potential herbicide/disease interactions.
This example describes the effect of herbicides on natural stripe rust infection of NILs of Bobwhite with and without glyphosate tolerance. The wheat was seeded and inoculated with Rhizoctonia and Ggt as described in Example 1. The yield results from the Pullman site are recorded in Table 6.

soybean rust = experiment: Suppression of soybean rust on glyphosate resistant soybean lines; type: in vivo
From the text: This example describes the suppression of soybean rust using glyphosate treatment of glyphosate resistant soybean varieties.
Two different Roundup Ready soybean lines were used: Line 1 (purple flowers/grey pubescence) and Line 2 (white flowers/grey pubescence). Both lines are glyphosate resistant and have been classified as maturity group 3, with white or purple flowers and grey pubescence. The following treatments were used:
Treatment 1: No glyphosate spray before or after inoculation
Treatment 2: One application of glyphosate (48 oz./A) ([…] of active ingredient) three days before inoculation
Treatment 3: Twice the amount of glyphosate as in Treatment 2 (96 oz./A) ([…] of active ingredient) applied three days before inoculation
Treatment 4: One application of glyphosate (48 oz./A) three days before inoculation, and one application (48 oz./A) (1.5 kg/ha of active ingredient) when symptoms of soybean rust first appeared.
Treatment 5: No glyphosate spray before inoculation, and one application (48 oz./A) (1.5 kg/ha of active ingredient) when symptoms of soybean rust first appeared.

R. solani = details: cited from earlier work
Ggt = details: New Zealand studies; green-bridge effect on couch grass; cited from earlier work

`O=C(O)CNCP(=O)(O)O` [glyphosate, N-phosphonomethylglycine] gave a Yield (non-inoculated wheat; Davenport) of 29.1 bu/acre, a Yield (non-inoculated wheat; Lind) of 14.2 bu/acre and a Yield (non-inoculated wheat; Pullman) of 55.6 bu/acre. The “yield of glyphosate-resistant wheat lines” value (non-inoculated wheat; in the absence of additional pathogen inoculum) was “increases yield”, the Yield ([1]; Davenport) was 28.7 bu/acre and the Yield ([1]; Lind) was 14.4 bu/acre. For the same compound, the Yield ([1]; Pullman) was 57.0 bu/acre, the “yield versus untreated and Buctril/Harmony treated glyphosate sensitive wheat” value ([1]; glyphosate resistant, Ggt inoculated wheat, each location) was “significantly superior (P<0.05)” and the Yield ([2]; Davenport) was 29.0 bu/acre. For the same compound, the Yield ([2]; Lind) was 14.0 bu/acre, the Yield ([2]; Pullman) was 53.9 bu/acre and the “yield relative to untreated and Buctril/Harmony treated glyphosate sensitive wheat” value ([2]; glyphosate resistant wheat) was “enhanced yield at each location”. For the same compound, the stripe rust symptoms (stripe rust; Bobwhite cultivars under severe stripe rust conditions) was “only moderate stripe rust symptoms”, the Yield (stripe rust; inoculation Ggt) was 49.0 bu/acre and the Yield (stripe rust; inoculation None) was 44.9 bu/acre. The Yield (stripe rust; inoculation Rhizoctonia) was 40.0 bu/acre, the “yields of glyphosate resistant Bobwhite NILs” value (stripe rust; regardless of what pathogen had been introduced) was “superior yields” and the “effect on soy rust” value (soybean rust; treatments 2 and 3: 48 oz./A or 96 oz./A three days before inoculation) was “dose-dependent effect on soy rust”. The “effect on soybean infected with soy rust” value (soybean rust; treatments 4 and 5: 48 oz./A when symptoms of soybean rust first appeared) was “curative effect”, the “grain yields of glyphosate-sensitive barley under R. solani” value (R. solani; glyphosate applied in the fall or three weeks prior to planting) was “no significant yield depression” and the “grain yields of glyphosate-sensitive barley under R. solani” value (R. solani; glyphosate applied three days before planting) was “significantly reduced grain yields”. For the same compound, the “levels of infection of cereals with Ggt” value (Ggt) was “increases the levels of infection with Ggt”.

— patent US20130130903A1, “Suppression of Foliar and Soilborne Pathogens” (priority 2003, published 2013)
